Patent US20180008587A1, “THIOHYDANTOIN ANDROGEN RECEPTOR ANTAGONISTS FOR THE TREATMENT OF CANCER” (Jaressen Pharmaceutica NV, priority 2016, published 2018)
Substitutions are numbered along the chain they refer to.

How the values were obtained:
F876L-VP16 = biological target: T1, F876L-VP16 (Homo sapiens, UniProt P10275, F877L); experiment: AR-VP16 DNA binding assay, HepG2; format: cell-based; details: HepG2, antagonist mode, 1 nM R1881, 48 hours
T1 construct: VP16 (fusion partner); expressed in transfected cells; host or cells: HepG2
T1 sequence (P10275 1-920 F877L): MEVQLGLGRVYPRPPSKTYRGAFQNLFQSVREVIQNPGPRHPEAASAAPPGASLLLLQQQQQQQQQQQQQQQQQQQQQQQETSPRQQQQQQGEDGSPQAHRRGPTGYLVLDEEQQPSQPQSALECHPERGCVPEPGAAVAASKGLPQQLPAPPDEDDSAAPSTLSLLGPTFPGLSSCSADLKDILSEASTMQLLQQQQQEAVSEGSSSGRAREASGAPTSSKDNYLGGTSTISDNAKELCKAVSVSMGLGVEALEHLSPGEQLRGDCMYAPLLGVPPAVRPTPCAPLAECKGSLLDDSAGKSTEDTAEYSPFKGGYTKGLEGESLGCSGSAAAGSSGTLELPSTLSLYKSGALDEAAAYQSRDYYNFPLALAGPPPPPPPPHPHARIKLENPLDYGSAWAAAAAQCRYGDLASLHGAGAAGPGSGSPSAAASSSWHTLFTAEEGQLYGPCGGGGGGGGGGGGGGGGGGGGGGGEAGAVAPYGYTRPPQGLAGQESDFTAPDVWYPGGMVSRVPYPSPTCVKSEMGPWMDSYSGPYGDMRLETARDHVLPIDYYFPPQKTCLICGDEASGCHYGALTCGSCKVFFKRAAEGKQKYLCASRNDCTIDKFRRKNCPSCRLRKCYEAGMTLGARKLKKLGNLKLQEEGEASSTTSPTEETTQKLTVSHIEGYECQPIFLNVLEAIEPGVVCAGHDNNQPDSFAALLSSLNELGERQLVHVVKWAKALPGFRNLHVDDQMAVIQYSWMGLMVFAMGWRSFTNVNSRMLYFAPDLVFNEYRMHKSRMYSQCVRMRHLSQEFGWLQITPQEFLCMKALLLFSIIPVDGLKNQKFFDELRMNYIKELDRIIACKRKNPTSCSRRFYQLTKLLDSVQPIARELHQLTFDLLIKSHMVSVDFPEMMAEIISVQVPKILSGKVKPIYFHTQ
Experimental: (§1) HepG2 cells were maintained in EMEM supplemented with 10% FBS. One day before transfection, the media was changed to EMEM with 10% CSS. […] Cells were then trypsinized, counted and resuspended at 500,000 cells/mL. For agonist mode, the compounds were serially diluted and 50 μL of the compound was added per well. 50 μL of the cells were added to each well and incubated for 48 hours. For antagonist mode, a final concentration of 90 pM (VP16 AR) or 1 nM (VP16 F876L) R1881 was added to the plate and incubated for 48 hours. The plates were then assayed using SteadyGlo and read on the Envision. Percent Stimulation and Inhibition were determined and analyzed using GraphPad Prism.

AR-VP16 = biological target: T2, AR-VP16 (Homo sapiens, UniProt P10275); experiment: AR-VP16 DNA binding assay, HepG2; format: cell-based; details: HepG2, antagonist mode, 90 pM R1881, 48 hours; read-out: IC50 VP16 WT
T2 sequence (P10275 560-920 limits assumed): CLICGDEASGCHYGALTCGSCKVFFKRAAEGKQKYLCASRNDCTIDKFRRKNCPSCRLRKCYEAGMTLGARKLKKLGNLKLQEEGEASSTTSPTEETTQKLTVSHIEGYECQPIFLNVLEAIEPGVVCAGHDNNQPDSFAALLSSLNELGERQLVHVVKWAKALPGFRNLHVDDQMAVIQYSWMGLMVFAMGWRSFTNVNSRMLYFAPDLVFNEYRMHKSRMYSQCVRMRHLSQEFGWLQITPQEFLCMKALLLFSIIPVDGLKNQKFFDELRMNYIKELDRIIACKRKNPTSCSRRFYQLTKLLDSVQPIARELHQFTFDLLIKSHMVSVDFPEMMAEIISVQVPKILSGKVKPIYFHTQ
Experimental: as §1

[1] = biological target: T3, F876L mutant Androgen Receptor (AR-F876L) (Homo sapiens, UniProt P10275, F877L); experiment: LNCaP-AR-F876L AG reporter assay (ARE firefly luciferase, agonist mode); format: cell-based
T3 construct: expressed in transfected cells; host or cells: LNCaP (LNCaP F876L)
T3 sequence (P10275 1-920 F877L): T1 sequence (P10275 1-920 F877L)
Outline: (§2)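 Cells: stable LNCaP pools, AR-wt or AR-F876L, in charcoal-stripped serum. Agonist challenge for antagonist mode was 400 pM (WT) and 600 pM (F876L). Luminescence was measured after 20-24 h incubation.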

[2] = biological target: T4, wild-type Androgen Receptor (AR-wt) (Homo sapiens, UniProt P10275); experiment: LNCaP-AR-wt AG reporter assay (ARE firefly luciferase, agonist mode); format: cell-based
T4 construct: expressed in transfected cells; host or cells: LNCaP (LNCaP AR (cs))
T4 sequence (P10275 1-920): T1 sequence (P10275 1-920 F877L) with L877F
Outline: as §2

[3] = biological target: T4, wild-type Androgen Receptor (AR-wt); experiment: LNCaP-AR-wt ANT reporter assay (ARE firefly luciferase, antagonist mode); format: cell-based
Outline: (§3)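 LNCaP stable pooled lines expressing ARE-firefly luciferase, in charcoal-stripped serum medium, were exposed to compounds; antagonist mode used agonist at 400 pM (WT) or 600 pM (F876L).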

[4] = biological target: T3, F876L mutant Androgen Receptor (AR-F876L); experiment: LNCaP-AR-F876L ANT reporter assay (ARE firefly luciferase, antagonist mode); format: cell-based
Outline: as §3

T877A AR mutant = biological target: T5, T877A AR mutant (Homo sapiens, UniProt P10275, T878A); details: cited from earlier work
T5 sequence (P10275 1-920 T878A): T1 sequence (P10275 1-920 F877L) with L877F, T878A

Row | IC50 (F876L-VP16) [nM] | IC50 (AR-VP16) [nM] | EC50 ([1]; agonist mode, −Log10(EC50 [Molar]), read-out: LNCaP-AR-F876L AG pEC50 (converted)) [nM] | Emax ([1]; maximum % stimulation (agonist response) over tested concentration range, read-out: LNCaP-AR-F876L AG MAX % Stim) [%] | EC50 ([2]; agonist mode, −Log10(EC50 [Molar]), read-out: LNCaP-AR-wt AG pEC50 (converted)) [nM] | Emax ([2]; maximum % stimulation (agonist response) over tested concentration range, read-out: LNCaP-AR-wt AG MAX % Stim) [%] | IC50 ([3]; antagonist mode, 400 pM R-1881 challenge, −Log10(IC50 [Molar]), read-out: LNCaP-AR-wt ANT pIC50 (converted)) [nM] | Emax ([3]; maximum % inhibition of R1881 control response over tested concentration range, read-out: LNCaP-AR-wt ANT MAX % Inh) [%] | Emax ([4]; maximum % inhibition of R1881 control response over tested concentration range, read-out: LNCaP-AR-F876L ANT MAX % Inh) [%] | IC50 ([4]; read-out: LNCaP-AR-F876L ANT pIC50 (converted)) [nM] | SMILES | activity in T877A AR mutant (T877A AR mutant)
1 | 746 | 2050 | > 15100 | 0.7 | > 15100 | 1.1 | 933 | 98.7 | 99.3 | 525 | Cc1cc(N2C(=O)C3(CCC3)N(c3ccc(OC4CCN(CCO)CC4)cc3)C2=S)cnc1C#N [Cpd 60, 5-[8-[4-[[1-(2-hydroxyethyl)-4-piperidyl]oxy]phenyl]-5-oxo-7-thioxo-6,8-diazaspiro[3.4]octan-6-yl]-3-methyl-pyridine-2-carbonitrile] | 
2 |  |  |  |  |  |  |  |  |  |  | CC(C)(O)C(=O)Nc1ccc([N+](=O)[O-])c(C(F)(F)F)c1 [hydroxyflutamide] | act as AR agonists
